Data published in PMC11101630.
Blank lines part the entries; values can stand above or below the molecule they belong to.

Key:
[1] = system: RhoBAST WT (RNA, aptamer) GGAACCUCCGCGAAAGCGGUGAAGGAGAGGCGCAAGGUUAACCGCCUCAGGUUCC; assay: ITC; conditions: K+ 100 mM, Mg2+ 0.5 mM; 20 mM Tris-HCl pH 7.5, 25 °C; no binding observed without Mg2+
[2] = system: RhoBAST A50U (RNA, aptamer) GGAACCUCCGCGAAAGCGGUGAAGGAGAGGCGCAAGGUUUACCGCCUCAGGUUCC; assay: ITC; conditions: K+ 100 mM; Mg2+ concentration not given; 20 mM Tris-HCl pH 7.5, 25 °C, nM inferred from ΔG
[3] = system: RhoBAST A51U (RNA, aptamer) GGAACCUCCGCGAAAGCGGUGAAGGAGAGGCGCAAGGUUAUCCGCCUCAGGUUCC; assay: ITC; conditions: K+ 100 mM; Mg2+ concentration not given; 20 mM Tris-HCl pH 7.5, 25 °C, nM inferred from ΔG
[4] = system: RhoBAST C52A (RNA, aptamer) GGAACCTCCGCGAAAGCGGUGAAGGAGAGGCGCAAGGUUAAACGCCUCAGGUUCC; assay: ITC; conditions: K+ 100 mM; Mg2+ concentration not given; 20 mM Tris-HCl pH 7.5, 25 °C; 46 x K of WT
[5] = system: RhoBAST A36C (RNA, aptamer) GGAACCUCCGCGAAAGCGGUGAAGGCGAGGCGCAAGGUUAACCGCCUCAGGUUCC; assay: ITC; conditions: K+ 100 mM; Mg2+ concentration not given; 20 mM Tris-HCl pH 7.5, 25 °C; 40 x K of WT
[6] = system: RhoBAST U30C/A36C (RNA, aptamer) GGAACCUCCGCGAAAGCGGCGAAGGCGAGGCGCAAGGUUAACCGCCUCAGGUUCC; assay: ITC; conditions: K+ 100 mM; Mg2+ concentration not given; 20 mM Tris-HCl pH 7.5, 25 °C; 28 x K of WT
[7] = system: RhoBAST A36U (RNA, aptamer) GGAACCUCCGCGAAAGCGGUGAAGGUGAGGCGCAAGGUUAACCGCCUCAGGUUCC; assay: ITC; conditions: K+ 100 mM; Mg2+ concentration not given; 20 mM Tris-HCl pH 7.5, 25 °C; 3.5 x K of WT
[8] = system: RhoBAST G46A (RNA, aptamer) GGAACCUCCGCGAAAGCGGUGAAGGAGAGGCGCAAAGUUAACCGCCUCAGGUUCC; assay: ITC; conditions: K+ 100 mM; Mg2+ concentration not given; 20 mM Tris-HCl pH 7.5, 25 °C; 6.2 x K of WT
[9] = system: RhoBAST G47A (RNA, aptamer) GGAACCUCCGCGAAAGCGGUGAAGGAGAGGCGCAAGAUUAACCGCCUCAGGUUCC; assay: ITC; conditions: K+ 100 mM; Mg2+ concentration not given; 20 mM Tris-HCl pH 7.5, 25 °C; 26.8 x K of WT
[10] = system: RhoBAST U48C (RNA, aptamer) GGAACCUCCGCGAAAGCGGUGAAGGAGAGGCGCAAGGCUAACCGCCUCAGGUUCC; assay: ITC; conditions: K+ 100 mM; Mg2+ concentration not given; 20 mM Tris-HCl pH 7.5, 25 °C; 1.3 x K of WT
[11] = system: RhoBAST U49A (RNA, aptamer) GGAACCUCCGCGAAAGCGGUGAAGGAGAGGCGCAAGGUAAACCGCCUCAGGUUCC; assay: ITC; conditions: K+ 100 mM; Mg2+ concentration not given; 20 mM Tris-HCl pH 7.5, 25 °C; 100 x K of WT
[12] = system: RhoBAST A33G (RNA, aptamer) GGAACCUCCGCGAAAGCGGUGAGGGAGAGGCGCAAGGUUAACCGCCUCAGGUUCC; assay: ITC; conditions: K+ 100 mM; Mg2+ concentration not given; 20 mM Tris-HCl pH 7.5, 25 °C; similar to WT
[13] = system: RhoBAST A33C (RNA, aptamer) GGAACCUCCGCGAAAGCGGUGACGGAGAGGCGCAAGGUUAACCGCCUCAGGUUCC; assay: ITC; conditions: K+ 100 mM; Mg2+ concentration not given; 20 mM Tris-HCl pH 7.5, 25 °C; similar to WT
[14] = system: RhoBAST C8G (RNA, aptamer) GGAACCUGCGCGAAAGCGGUGAAGGAGAGGCGCAAGGUUAACCGCCUCAGGUUCC; assay: ITC; conditions: K+ 100 mM; Mg2+ concentration not given; 20 mM Tris-HCl pH 7.5, 25 °C; affinity not prominently reduced
[15] = system: RhoBAST G37A (RNA, aptamer) GGAACCUCCGCGAAAGCGGUGAAGGAAAGGCGCAAGGUUAACCGCCUCAGGUUCC; assay: ITC; conditions: K+ 100 mM; Mg2+ concentration not given; 20 mM Tris-HCl pH 7.5, 25 °C; affinity not prominently reduced
[16] = system: RhoBAST ∆U7 (RNA, aptamer) GGAACCCCGCGAAAGCGGUGAAGGAGAGGCGCAAGGUUAACCGCCUCAGGUUCC; assay: ITC; conditions: K+ 100 mM; Mg2+ concentration not given; 20 mM Tris-HCl pH 7.5, 25 °C; affinity not prominently reduced
[17] = system: RhoBAST G31C (RNA, aptamer) GGAACCTCCGCGAAAGCGGUCAAGGAGAGGCGCAAGGUUAACCGCCUCAGGUUCC; assay: ITC; conditions: K+ 100 mM; Mg2+ concentration not given; 20 mM Tris-HCl pH 7.5, 25 °C; 100 μM TMR-DN titrated into 10 μM RNA
[18] = system: RhoBAST C52G (RNA, aptamer) GGAACCTCCGCGAAAGCGGUGAAGGAGAGGCGCAAGGUUAAGCGCCUCAGGUUCC; assay: ITC; conditions: K+ 100 mM; Mg2+ concentration not given; 20 mM Tris-HCl pH 7.5, 25 °C; 100 μM TMR-DN titrated into 10 μM RNA
[19] = system: RhoBAST G35C/C52G (RNA, aptamer) GGAACCTCCGCGAAAGCGGUGAAGCAGAGGCGCAAGGUUAAGCGCCUCAGGUUCC; assay: ITC; conditions: K+ 100 mM; Mg2+ concentration not given; 20 mM Tris-HCl pH 7.5, 25 °C; 100 μM TMR-DN titrated into 10 μM RNA
[20] = system: RhoBAST G35A (RNA, aptamer) GGAACCTCCGCGAAAGCGGUGAAGAAGAGGCGCAAGGUUAACCGCCUCAGGUUCC; assay: ITC; conditions: K+ 100 mM; Mg2+ concentration not given; 20 mM Tris-HCl pH 7.5, 25 °C; 100 μM TMR-DN titrated into 10 μM RNA
[21] = system: RhoBAST G47C (RNA, aptamer) GGAACCUCCGCGAAAGCGGUGAAGGAGAGGCGCAAGCUUAACCGCCUCAGGUUCC; assay: ITC; conditions: K+ 100 mM; Mg2+ concentration not given; 20 mM Tris-HCl pH 7.5, 25 °C; 100 μM TMR-DN titrated into 10 μM RNA
[22] = system: RhoBAST L2-U1 (L2'-U1; RhoBAST-U1A Loop) (RNA, aptamer) GGAACCUCCGCCCAUUGCACUCCGGGCGGUGAAGGAGAGGCGCAAGGUUAACCGCCUCAGGUUCC; assay: X-ray crystal structure, 2.75 Å; conditions: Mg2+; co-crystal with U1A protein
[23] = system: RhoBAST L2-U1 (L2'-U1; RhoBAST-U1A Loop) (RNA, aptamer) GGAACCUCCGCCCAUUGCACUCCGGGCGGUGAAGGAGAGGCGCAAGGUUAACCGCCUCAGGUUCC; assay: binding assay in Supplementary Fig. 1b; conditions: K+ 100 mM, Mg2+ 10 mM assumed; 20 mM Tris-HCl pH 7.5, 25 °C, nM inferred from ΔG high affinity as wild type
[24] = system: RhoBAST L3'-U1 (RNA, aptamer) GGAACCUCCGCGAAAGCGGUGAAGGAGAGGCCAUUGCACUCCGGCCUCAGGUUCC; assay: binding assay in Supplementary Fig. 1b
[25] = molecular target: U1A (U1 RNA-binding protein, co-crystallization chaperone) (human, UniProt P09012 1-102); assay: ITC; TMR-DN presence in this assay not stated; ITC: 20 mM Tris-HCl pH 7.5, 100 mM KCl, 0-10 mM MgCl2, 25 C (described for RNA-fluorophore titrations; U1A conditions not separately given); conditions: protein: recombinant; four-way junction; U1A hairpin loop
Chain of U1A (U1 RNA-binding protein, co-crystallization chaperone) (P09012 1-102): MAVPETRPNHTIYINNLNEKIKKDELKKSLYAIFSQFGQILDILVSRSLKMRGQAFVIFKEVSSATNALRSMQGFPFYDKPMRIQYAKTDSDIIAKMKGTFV

KD [1]: ~ 24 nM
KD [2]: 3590 nM
KD [3]: 1060 nM
KD [4]: 1600 nM
KD [5]: 1400 nM
KD [6]: 976 nM
KD [7]: 122 nM
KD [8]: 217 nM
KD [9]: 931 nM
KD [10]: 45.5 nM
KD [11]: 3510 nM
KD [12]: 35.1 nM
KD [13]: 65.5 nM
KD [14]: 47 nM
KD [15]: 83 nM
KD [16]: 56.9 nM
binding [17]: no
binding [18]: no
binding [19]: no
binding [20]: no
binding [21]: no
binding [22]: yes
KD [23]: 35.5 ± 5.69 nM
binding [24]: no
Molecule: CN(C)c1ccc2c(-c3ccc(C(=O)NCCOCCOCCNc4ccc([N+](=O)[O-])cc4[N+](=O)[O-])cc3C(=O)[O-])c3ccc(=[N+](C)C)cc-3oc2c1

B1: RhoBAST-U1A Loop (L2'-U1) (structured_RNA)
RNA: GGAACCUCCGCCCAUUGCACUCCGGGCGGUGAAGGAGAGGCGCAAGGUUAACCGCCUCAGGUUCC
Kd [25]: 7.94 ± 1.74 nM
